24 compounds from patent US10077261B2, “Imidazolin-5-one derivative useful as FASN inhibitors for the treatment of cancer” (Janssen Pharmaceutica NV, priority 2012, dated 2018) can be followed below.

The assay has as its target T1, hFASN enzyme (full length) (Homo sapiens, UniProt P49327).
T1 construct: 10 μL hFASN enzyme (full length, 300 ng, purified in house); made in house
The assay can be described thus: Fatty Acid Synthase (FASN) inhibition scintillation proximity assay. The conditions noted are these: for inhibition at 10 µM: read-out: Human FASN % inhibition @ 10 μM, 10 μM test compound; for IC50: read-out: Human FASN pIC50 (converted). It is filed as biochemical. Summed up: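 Compounds at 0.01–30 μM were mixed with 300 ng purified full-length enzyme in 100 mM KH2PO4 pH 7.5, 1 mM DTT. Substrates ³H-acetyl-CoA and malonyl-CoA were then converted, and bead addition stopped the reaction. Signal was normalised to low and high plate controls and fitted by 4-parameter nonlinear regression.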
In general terms: Scintillation proximity formats need no separation of bound from free tracer.

Each structure is given as a SMILES string. Where only a bound is given, the exact number is not on record here.

T1 sequence (P49327 whole entry): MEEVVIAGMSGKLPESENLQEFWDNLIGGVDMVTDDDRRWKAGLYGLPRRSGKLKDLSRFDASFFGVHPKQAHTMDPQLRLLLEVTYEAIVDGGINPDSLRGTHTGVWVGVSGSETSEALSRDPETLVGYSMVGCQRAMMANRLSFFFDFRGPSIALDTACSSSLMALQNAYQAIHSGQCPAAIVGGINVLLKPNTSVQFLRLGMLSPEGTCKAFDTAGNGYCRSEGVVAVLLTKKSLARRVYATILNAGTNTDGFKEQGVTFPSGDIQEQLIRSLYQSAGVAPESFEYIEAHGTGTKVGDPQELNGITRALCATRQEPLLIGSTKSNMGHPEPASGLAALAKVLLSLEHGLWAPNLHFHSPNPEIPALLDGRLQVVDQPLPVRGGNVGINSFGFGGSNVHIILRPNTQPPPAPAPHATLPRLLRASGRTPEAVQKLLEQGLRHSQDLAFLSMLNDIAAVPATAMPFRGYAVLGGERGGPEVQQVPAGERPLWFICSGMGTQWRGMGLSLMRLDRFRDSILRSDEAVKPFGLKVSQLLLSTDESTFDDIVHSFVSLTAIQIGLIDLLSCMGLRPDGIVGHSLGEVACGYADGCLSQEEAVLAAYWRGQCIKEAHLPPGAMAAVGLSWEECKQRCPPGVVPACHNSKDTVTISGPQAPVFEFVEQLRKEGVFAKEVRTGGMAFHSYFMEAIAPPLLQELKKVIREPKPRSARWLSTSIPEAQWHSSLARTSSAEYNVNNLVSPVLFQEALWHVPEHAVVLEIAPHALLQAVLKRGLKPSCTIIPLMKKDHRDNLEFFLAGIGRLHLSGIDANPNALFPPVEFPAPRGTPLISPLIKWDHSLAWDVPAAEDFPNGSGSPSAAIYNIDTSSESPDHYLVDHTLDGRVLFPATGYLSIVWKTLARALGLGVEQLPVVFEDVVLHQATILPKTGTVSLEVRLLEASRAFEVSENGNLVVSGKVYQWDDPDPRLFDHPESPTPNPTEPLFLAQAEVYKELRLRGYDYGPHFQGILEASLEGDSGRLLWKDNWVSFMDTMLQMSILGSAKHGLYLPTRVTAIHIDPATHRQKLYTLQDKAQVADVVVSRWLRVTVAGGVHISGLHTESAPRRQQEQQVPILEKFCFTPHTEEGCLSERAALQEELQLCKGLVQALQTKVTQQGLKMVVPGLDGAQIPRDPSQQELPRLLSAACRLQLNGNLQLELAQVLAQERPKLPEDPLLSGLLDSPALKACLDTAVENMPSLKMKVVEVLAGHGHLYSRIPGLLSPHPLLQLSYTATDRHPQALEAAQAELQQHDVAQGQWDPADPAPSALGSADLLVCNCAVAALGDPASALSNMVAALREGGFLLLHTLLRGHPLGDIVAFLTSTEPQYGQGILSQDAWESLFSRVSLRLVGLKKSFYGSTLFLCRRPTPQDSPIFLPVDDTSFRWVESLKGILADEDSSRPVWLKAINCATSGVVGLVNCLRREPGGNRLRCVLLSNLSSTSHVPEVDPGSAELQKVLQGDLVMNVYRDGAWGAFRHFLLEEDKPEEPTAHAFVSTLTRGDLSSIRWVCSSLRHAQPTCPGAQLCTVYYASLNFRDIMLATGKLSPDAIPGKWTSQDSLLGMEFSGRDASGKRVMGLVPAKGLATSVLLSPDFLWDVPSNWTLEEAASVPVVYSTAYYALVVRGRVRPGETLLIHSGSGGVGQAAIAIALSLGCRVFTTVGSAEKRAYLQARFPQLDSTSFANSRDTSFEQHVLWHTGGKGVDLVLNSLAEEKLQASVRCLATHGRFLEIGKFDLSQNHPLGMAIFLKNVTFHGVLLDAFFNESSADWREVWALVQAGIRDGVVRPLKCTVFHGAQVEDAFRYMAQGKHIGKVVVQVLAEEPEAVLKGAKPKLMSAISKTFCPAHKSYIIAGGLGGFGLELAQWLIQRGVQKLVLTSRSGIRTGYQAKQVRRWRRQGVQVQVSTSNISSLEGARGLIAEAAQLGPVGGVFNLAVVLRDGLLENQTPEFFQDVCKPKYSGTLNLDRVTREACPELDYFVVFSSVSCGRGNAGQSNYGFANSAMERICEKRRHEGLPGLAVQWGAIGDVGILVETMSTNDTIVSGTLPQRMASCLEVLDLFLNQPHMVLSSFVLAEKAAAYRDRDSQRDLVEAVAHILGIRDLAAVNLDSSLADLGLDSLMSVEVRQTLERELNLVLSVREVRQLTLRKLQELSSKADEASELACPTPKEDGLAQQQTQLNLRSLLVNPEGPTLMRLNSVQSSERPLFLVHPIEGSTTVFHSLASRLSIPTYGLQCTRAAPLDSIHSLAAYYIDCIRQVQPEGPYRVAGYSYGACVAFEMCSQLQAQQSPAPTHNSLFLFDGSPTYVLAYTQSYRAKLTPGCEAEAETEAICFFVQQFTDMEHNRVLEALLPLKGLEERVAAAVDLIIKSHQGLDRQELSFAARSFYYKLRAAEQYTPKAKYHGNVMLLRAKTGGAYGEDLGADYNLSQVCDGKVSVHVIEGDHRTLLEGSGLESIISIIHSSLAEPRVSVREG

By inhibition is commonly meant the change of the read-out against control, counted positive when it falls. Take `Cn1ncc2cc(-c3ccc(C4=NC5(CCOC5)C(=O)N4C[C@@H]4CCN(S(C)(=O)=O)C4)cc3)ccc21` (stereo partly drawn) [compound 933, 2-(4-(1-methyl-1H-indazol-5-yl)phenyl)-3-(((S)-1-(methylsulfonyl)pyrrolidin-3-yl)methyl)-7-oxa-1,3-diazaspiro[4.4]non-1-en-4-one]: the inhibition at 10 µM turned out to be 5% and the IC50 was above 10 µM.
As for `O=C(c1nccs1)N1CCC(CN2C(=O)C3(CCOC3)N=C2c2ccc(-c3ccc4occc4c3)cc2)C1` (stereo not drawn) [compound 934, 2-(4-(benzofuran-5-yl)phenyl)-3-((1-(thiazole-2-carbonyl)pyrrolidin-3-yl)methyl)-7-oxa-1,3-diazaspiro[4.4]non-1-en-4-one], the inhibition at 10 µM was 27% and the IC50 was above 10 µM.
The like results for `Cn1ncc2cc(-c3ccc(C4=NC5(CCOCC5)C(=O)N4CC4CN(C(=O)C(F)(F)F)C4)cc3)ccc21` [compound 935, 2-(4-(1-methyl-1H-indazol-5-yl)phenyl)-3-((1-(2,2,2-trifluoroacetyl)azetidin-3-yl)methyl)-8-oxa-1,3-diazaspiro[4.5]dec-1-en-4-one] were, in that order, -2% and above 10 µM.
For `COC(=O)N1CC(CN2C(=O)C3(CCOCC3)N=C2c2ccc(-c3ccc(-c4cnn(C)c4)cc3)cc2)C1` [compound 936, methyl 3-((2-(4′-(1-methyl-1H-pyrazol-4-yl)-[1,1′-biphenyl]-4-yl)-4-oxo-8-oxa-1,3-diazaspiro[4.5]dec-1-en-3-yl)methyl)azetidine-1-carboxylate], the inhibition at 10 µM worked out at 7% and the IC50 is above 10 µM.
In the case of `COC(=O)N1CC(CN2C(=O)C3(CCOCC3)N=C2c2ccc(-c3ccc4c(cnn4C)c3)cc2)C1` [compound 941, methyl 3-((2-(4-(1-methyl-1H-indazol-5-yl)phenyl)-4-oxo-8-oxa-1,3-diazaspiro[4.5]dec-1-en-3-yl)methyl)azetidine-1-carboxylate], the inhibition at 10 µM was 5% and the IC50 was above 10 µM.
`CS(=O)(=O)N1CC(CN2C(=O)C3(CCOC3)N=C2c2ccc(-c3ccc4cccnc4c3)cc2)C1` (stereo not drawn) [compound 942, 3-((1-(methylsulfonyl)azetidin-3-yl)methyl)-2-(4-(quinolin7-yl)phenyl)-7-oxa-1,3-diazaspiro[4.4]non-1-en-4-one]: the inhibition at 10 µM was 11% and the IC50 is above 10 µM.
Regarding `Cn1ncc2cc(-c3ccc(C4=NC5(CCOC5)C(=O)N4CC4CN(S(C)(=O)=O)C4)cc3)ccc21` (stereo not drawn) [compound 944, 2-(4-(1-methyl-1H-indazol-5-yl)phenyl)-3-((1-(methylsulfonyl)azetidin-3-yl)methyl)-7-oxa-1,3-diazaspiro[4.4]non-1-en-4-one], the inhibition at 10 µM is 5% and the IC50 is above 10 µM.
For the compound `Cn1ncc2cc(-c3ccc(C4=NC5(CCOC5)C(=O)N4CC4CN(C(=O)N5CCCC5)C4)cc3)ccc21` (stereo not drawn) [compound 945, 2-(4-(1-methyl-1H-indazol-5-yl)phenyl)-3-((1-(pyrrolidine-1-carbonyl)azetidin-3-yl)methyl)-7-oxa-1,3-diazaspiro[4.4]non-1-en-4-one], the inhibition at 10 µM was found to be 38% and the IC50 was above 10 µM.
For `COC(=O)N1CC2(C1)N=C(c1ccc(-c3ccc4occc4c3)cc1)N(C[C@@H]1CCN(C(=O)C(F)(F)F)C1)C2=O` [compound 946, (R)-methyl 6-(4-(benzofuran-5-yl)phenyl)-8-oxo-7-((1-(2,2,2-trifluoroacetyl)pyrrolidin-3-yl)methyl)-2,5,7-triazaspiro[3.4]oct-5-ene-2-carboxylate] the same measures were 37% and above 10 µM.
The like results for `O=C(c1nccs1)N1CC(CN2C(=O)C3(CCOCC3)N=C2c2ccc(-c3ccc4cccnc4c3)cc2)C1` [compound 947, 2-(4-(quinolin-7-yl)phenyl)-3-((1-(thiazole-2-carbonyl)azetidin-3-yl)methyl)-8-oxa-1,3-diazaspiro[4.5]dec-1-ene-4-one] were, in that order, -14% and above 10 µM.
The like results for `Cn1cc(-c2ccc(-c3ccc(C4=NC5(CCOCC5)C(=O)N4C[C@@H]4CCN(C(=O)c5nccs5)C4)cc3)cc2)cn1` [compound 948, (R)-2-(4′-(1-methyl-1H-pyrazol-4-yl)-[1,1′-biphenyl]-4-yl)-3-((1-(thiazole-2-carbonyl)pyrrolidin-3-yl)methyl)-8-oxa-1,3-diazaspiro[4.5]dec-1-en-4-one] were, in that order, 25% and above 10 µM.
On to `O=C(c1nccs1)N1CC(CN2C(=O)C3(CCOCC3)N=C2c2ccc(-c3ccc4occc4c3)cc2)C1` [compound 949, 2-(4-(benzofuran-5-yl)phenyl)-3-((1-(thiazole-2-carbonyl)azetidin-3-yl)methyl)-8-oxa-1,3-diazaspiro[4.5]dec-1-en-4-one], for which the inhibition at 10 µM was -4% and the IC50 was above 10 µM.
As for `Cn1cc(-c2ccc(-c3ccc(C4=NC5(CCOC5)C(=O)N4CC4CN(S(C)(=O)=O)C4)cc3)cc2)cn1` (stereo not drawn) [compound 950, 2-(4′-(1-methyl-1H-pyrazol-4-yl)-[1,1′-biphenyl]-4-yl)-3-((1-(methylsulfonyl)azetidin-3-yl)methyl)-7-oxa-1,3-diazaspiro[4.4]non-1-en-4-one], the inhibition at 10 µM was -1.27% and the IC50 was above 10 µM.
For `CC(C)N1CCC2(CC1)N=C(c1ccc(-c3ccc4cnccc4c3)cc1)N(CC1CN(C(=O)C3CC3)C1)C2=O` [compound 951, 3-((1-(cyclopropanecarbonyl)azetidin-3-yl)methyl)-8-isopropyl-2-(4-(isoquinolin-6-yl)phenyl)-1,3,8-triazaspiro[4.5]dec-1-en-4-one] the same measures were 41% and above 10 µM.
On to `O=C(C1CC1)N1CC(CN2C(=O)C3(CCN(C(=O)C(F)(F)F)CC3)N=C2c2ccc(-c3ccc4c(ccn4C(=O)C(F)(F)F)c3)cc2)C1` [compound 952, 3-((1-(cyclopropanecarbonyl)azetidin-3-yl)methyl)-8-(2,2,2-trifluoroacetyl)-2-(4-(1-(2,2,2-trifluoroacetyl)-1H-indol-5-yl)phenyl)-1,3,8-triazaspiro[4.5]dec-1-en-4-one], for which the inhibition at 10 µM was 45% and the IC50 is above 10 µM.
For `COC(=O)N1CC[C@@H](CN2C(=O)C3(CCOCC3)N=C2c2ccc(-c3ccc4c(cnn4C)c3)cc2)C1` [compound 953, (S)-methyl 3-((2-(4-(1-methyl-1H-indazol-5-yl)phenyl)-4-oxo-8-oxa-1,3-diazaspiro[4.5]dec-1-en-3-yl)methyl)pyrrolidine-1-carboxylate] the same measures were 35% and above 10 µM.
With `COC(=O)N1CC[C@@H](CN2C(=O)C3(CCOC3)N=C2c2ccc(-c3ccc4occc4c3)cc2)C1` (stereo partly drawn) [compound 954, (3S)-methyl 3-((2-(4-(benzofuran-5-yl)phenyl)-4-oxo-7-oxa-1,3-diazaspiro[4.4]non-1-en-3-yl)methyl)pyrrolidine-1-carboxylate], the inhibition at 10 µM was found to be 27% and the IC50 was above 10 µM.
For `Cn1ncc2cc(-c3ccc(C4=NC5(CCOC5)C(=O)N4C[C@@H]4CCN(C(=O)C(F)(F)F)C4)cc3)ccc21` (stereo partly drawn) [compound 955, 2-(4-(1-methyl-1H-indazol-5-yl)phenyl)-3-(((R)-1-(2,2,2-trifluoroacetyl)pyrrolidin-3-yl)methyl)-7-oxa-1,3-diazaspiro[4.4]non-1-en-4-one] the same measures were 34% and above 10 µM.
The like results for `COC(=O)N1CC2(C1)N=C(c1ccc(-c3ccc4occc4c3)cc1)N(C[C@@H]1CCN(S(C)(=O)=O)C1)C2=O` [compound 956, (S)-methyl 6-(4-(benzofuran-5-yl)phenyl)-7-((1-(methylsulfonyl)pyrrolidin-3-yl)methyl)-8-oxo-2,5,7-triazaspiro[3.4]oct-5-ene-2-carboxylate] were, in that order, 8% and above 10 µM.
Consider `O=C(c1nccs1)N1CC[C@@H](CN2C(=O)C3(CCOCC3)N=C2c2ccc(-c3ccc4occc4c3)cc2)C1` [compound 958, (R)-2-(4-(benzofuran-5-yl)phenyl)-3-((1-(thiazole-2-carbonyl)pyrrolidin-3-yl)methyl)-8-oxa-1,3-diazaspiro[4.5]dec-1-en-4-one], for which the inhibition at 10 µM was -6% and the IC50 was above 10 µM.
For `Cn1ncc2cc(-c3ccc(C4=NC5(CCOCC5)C(=O)N4C[C@@H]4CCN(C(=O)c5nccs5)C4)cc3)ccc21` [compound 959, (R)-2-(4-(1-methyl-1H-indazol-5-yl)phenyl)-3-((1-(thiazole-2-carbonyl)pyrrolidin-3-yl)methyl)-8-oxa-1,3-diazaspiro[4.5]dec-1-en-4-one] the same measures were -7% and above 10 µM.
For `CS(=O)(=O)N1CC[C@@H](CN2C(=O)C3(CCOCC3)N=C2c2ccc(-c3ccc4cccnc4c3)cc2)C1` [compound 960] the same measures were -2% and above 10 µM.
For `O=C(N1CC(CN2C(=O)C3(CCOCC3)N=C2c2ccc(-c3ccc4occc4c3)cc2)C1)C(F)(F)F` [compound 961, 2-(4-(benzofuran-5-yl)phenyl)-3-((1-(2,2,2-trifluoroacetyl)azetidin-3-yl)methyl)-8-oxa-1,3-diazaspiro[4.5]dec-1-en-4-one] the same measures were 7% and above 10 µM.
As for `COC(=O)N1CC2(C1)N=C(c1ccc(-c3ccc4cccnc4c3)cc1)N(C[C@@H]1CCN(C(=O)c3nccs3)C1)C2=O` [compound 962, (R)-methyl 8-oxo-6-(4-(quinolin-7-yl)phenyl)-7-((1-(thiazole-2-carbonyl)pyrrolidin-3-yl)methyl)-2,5,7-triazaspiro[3.4]oct-5-ene-2-carboxylate], the inhibition at 10 µM was 43% and the IC50 is above 10 µM.
